# Measured values reported in patent US10342796B2, “Acrylanilide derivative, preparation method, and applications thereof in pharmacy” (Ancureall Pharmaceutical (Shanghai) Co., Ltd., priority 2015, dated 2019).
# Where two headings read alike, the source gives them in different places.
# Assays:
# Assay in all cases: Growth inhibition GI50 in vitro (CCK8/MTT, 72 h)
# [1] = system: H292 (EGFR WT); format: cell-based; settings: Homo sapiens, NCI-H292
# [2] = system: AU565 (Her2 amp); format: cell-based, human; settings: Homo sapiens
# [3] = system: N87 (HER2 Amp); format: cell-based, human; settings: Homo sapiens
# [4] = system: HCC827 (EGFR dE746-A750); format: cell-based, human; settings: Homo sapiens
# [5] = system: H1975 (EGFR L858R/T790M); format: cell-based, human; settings: Homo sapiens, NCI-H1975
# [6] = system: PC-9 (EGFR dE746-A750); format: cell-based, human; settings: Homo sapiens
# [7] = system: Calu-3 (Her2 amp); format: cell-based; settings: Homo sapiens
# Experimental: Human lung adenocarcinoma cell line Calu-3 (ATCC) was cultured with 1×MEM complete medium (10% FBS, 1% double-antibiotics, 1% NEAA (Gibco), 2 mM glutamine and 1 mM of sodium pyruvate). Human breast cancer cell line SK-BR-3 was cultured with McCOY'S5A complete medium (10% FBS). Human colon cancer cell line SNU1040 (HER2 V777M positive) (ATCC) and human bronchoalveolar adenocarcinoma cell line NCI-H1781 (expressing HER2 exon 20 G776VC mutation) (ATCC) were cultured with 1×RPMI1640 complete medium (10% FBS), respectively.
# The suspension cells were collected by centrifugation. The supernatant was discard and the cell pellet was resuspended and counted. Different cell concentrations (5˜10×10^4 cells/mL) were prepared according to the growth cycle of each cell line and then seeded on a 96-well plate (Corning), 100 μL/well. The cells were incubated over night at 37° C., 5% CO2. The compounds were added to the cells on the second day with 2 wells in parallel. The final concentration of organic solvent shall not exceed 1%. The cells were continually incubated for 72 h, and then subjected to MTT assay.
# The present compounds and the reference compounds were dissolved with DMSO (Sigma), respectively. […] The storage concentration of compounds was 10 mM and kept at −20° C. They were diluted by 2 times or 10 times with serial dilution before using.
# Dojindo CCK8 reagent kit was used as MTT assay. […] FC meter was used as microplate reader.
# Adherent cell culture medium was discard and immediately replaced with fresh prepared medium which contains 10% CCK8 reagent (100 μL/well). For the suspension cells, CCK8 was directly added to 10% of the final concentration. The cells were continually incubated for 1˜4 h. When the color of control wells turned to dark yellow, the absorption value was measured at OD450 nm. The cell growth rate was calculated according to the following formula: cell growth rate (%)=100*(T−T0)/(C−T0), T=optical density of drug treatment cell well—optical density of blank control well; T0=optical density of cell well before drug treatment—optical density of blank control well; C=optical density of cell well of solvent control group—optical density of blank control well. […] The experiment was independently repeated 1˜3 times, and subject to biological statistical analysis.
# [8] = system: SK-BR-3 (Her2 amp); format: cell-based, human; settings: Homo sapiens
# [9] = system: A431 (EGFR WT, amplification and high expression); format: cell-based, human; settings: Homo sapiens, A-431
# [10] = system: H460 (EGFR wt, Kras G61H); format: cell-based, human; settings: Homo sapiens, NCI-H460
# [11] = system: H1299 (EGFR wt, Nras Q61K); format: cell-based, human; settings: Homo sapiens, NCI-H1299
# [12] = system: A549 (EGFR WT); format: cell-based, human; settings: Homo sapiens
# [13] = system: PC-9ER (EGFR delE746-A750/T790M); format: cell-based, human; settings: Homo sapiens, PC-9/ER; EGFR mutant cell line; range of GI50; read-out: GI50 PC9ER
# [14] = Table 15, 1000 nM to 0.03 nM serial dilution, read-out: GI50 H292 (EGFR WT)
# [15] = AU565, EGFR wt, Her2 amp, read-out: GI50
# [16] = N87, EGFR wt, Her2 amp, read-out: GI50
# [17] = Table 16, 1000 nM to 0.03 nM serial dilution, read-out: GI50 N87 (HER2 amp)
# [18] = HCC827, EGFR dE746-A750, read-out: GI50
# [19] = H1975, EGFR L858R/T790M, read-out: GI50
# [20] = Table 15, 1000 nM to 0.03 nM serial dilution, read-out: GI50 H1975 (EGFR L858R/T790M)
# [21] = PC-9, EGFR dE746-A750, read-out: GI50
# [22] = Table 15, 1000 nM to 0.03 nM serial dilution, read-out: GI50 PC-9 (EGFR dE746-A750)
# [23] = Calu-3, Table 16, 1000 nM to 0.03 nM serial dilution, read-out: GI50 Calu3 (HER2 amp)
# [24] = Calu-3, EGFR wt, Her2 amp, read-out: GI50
# [25] = H460, EGFR wt, Kras G61H, read-out: GI50
# [26] = H1299, EGFR wt, Nras Q61K, read-out: GI50
# [27] = A549, Table 15, 1000 nM to 0.03 nM serial dilution, read-out: GI50 A549 (EGFR WT)
# [28] = A549, EGFR wt, Kras G12S, read-out: GI50
# [29] = AU565, HER2 positive cell line, range of GI50, read-out: GI50 AU-565
# [30] = HER2 positive cell line, range of GI50, read-out: GI50 N87
# [31] = HCC827, EGFR mutant cell line, range of GI50, read-out: GI50 HCC827
# [32] = EGFR mutant cell line, range of GI50, read-out: GI50 H1975
# [33] = EGFR mutant cell line, range of GI50, read-out: GI50 PC-9
# [34] = SK-BR-3, HER2 positive cell line, range of GI50, read-out: GI50 SK-BR-3
# [35] = EGFR wild type cell line, range of GI50, read-out: GI50 A431
# [36] = EGFR wild type cell line, range of GI50, read-out: GI50 H460
# [37] = EGFR wild type cell line, range of GI50, read-out: GI50 H1299
# [38] = A549, EGFR wild type cell line, range of GI50, read-out: GI50 A549
# [39] = SK-BR-3, EGFR wt, Her2 amp, read-out: GI50
# [40] = Table 13, 72 h, read-out: Range of GI50 N87 (HER2 Amp)
# [41] = Table 13, 72 h, read-out: Range of GI50 H1975 (EGFR L858R/T790M)
# [42] = Table 13, 72 h, read-out: Range of GI50 PC-9 (EGFR dE746-A750)
# [43] = A549, Table 13, 72 h, read-out: Range of GI50 A549 (EGFR WT)
Compound,"GI50 ([1]; H292, EGFR wt, read-out: GI50) [nM]","GI50 [1, 14] [nM]","GI50 [2, 15] [nM]","GI50 [3, 16] [nM]","GI50 [3, 17] [nM]","GI50 [4, 18] [nM]","GI50 [5, 20] [nM]","GI50 [6, 22] [nM]","GI50 [12, 27] [nM]","GI50 [2, 29] [nM]","GI50 [3, 30] [nM]","GI50 [4, 31] [nM]","GI50 [5, 32] [nM]",GI50 [13] [nM],"GI50 [6, 33] [nM]","GI50 [8, 34] [nM]","GI50 [9, 35] [nM]","GI50 [10, 36] [nM]","GI50 [11, 37] [nM]","GI50 [12, 38] [nM]",further results
"C=CC(=O)Nc1cc(Nc2nccc(-c3cn(C)c4ccccc34)n2)c(OC)cc1N(C)CCN(C)C [AZD9291, reference compound]",> 1000,> 1000,312,234,219,15.6,15.6,13.9,> 1000,,,,,,,,,,,,"GI50 [5, 19]: 15.6 nM; GI50 [6, 21]: 13.9 nM; GI50 [7, 23]: 657 nM; GI50 [7, 24]: 686 nM; GI50 ([8]; SK-BR-3): 643 nM; GI50 ([9]; A431, EGFR wt, read-out: GI50): […]; GI50 [10, 25]: > 1000 nM; GI50 [11, 26]: > 1000 nM; GI50 [12, 28]: > 1000 nM"
"C=CC(=O)Nc1cc(Nc2nccc(-n3ccc4ccc(F)cc43)n2)c(OC)cc1N(C)CCN(C)C [Compound 63, N-(5-(4-(6-fluoro-1H-indol-1-yl)-pyrimidin-2-ylamino)-2-((2-(dimethylamino)ethyl)-methyl-amino)-4-methoxyl-phenyl)-acrylamide]",,,,,,,,,,100 to 1000,10 to 100,< 10,10 to 100,10 to 100,< 10,100 to 1000,100 to 1000,> 1000,> 1000,> 1000,
C=CC(=O)Nc1cc(Nc2nccc(-n3cnc4ccccc43)n2)c(OC)cc1N(C)CCN(C)C [Compound 106],> 1000,,19.5,23.6,,12.6,,,,10 to 100,10 to 100,10 to 100,10 to 100,10 to 100,10 to 100,10 to 100,100 to 1000,> 1000,> 1000,> 1000,"GI50 [5, 19]: 15.2 nM; GI50 [6, 21]: 15.6 nM; GI50 [8, 39]: 101 nM; GI50 ([9]; A431, EGFR wt, read-out: GI50): 498 nM; GI50 [10, 25]: > 1000 nM; GI50 [11, 26]: > 1000 nM; GI50 [12, 28]: > 1000 nM"
"C=CC(=O)Nc1cc(Nc2ncnc(Nc3cccc(Br)c3)n2)c(OC)cc1N(C)CCN(C)C [Compound 115, N-(5-(4-(3-bromo-phenylamino)-[1,3,5]triazin-2-ylamino)-2-((2-dimethylamino-ethyl)-methyl-amino)-4-methoxyl-phenyl)-acrylamide]",,,,,,,,,,10 to 100,< 10,< 10,10 to 100,< 10,< 10,< 10,100 to 1000,> 1000,> 1000,> 1000,
C=CC(=O)Nc1cc(Nc2ncnc(Nc3cccc(Br)c3)n2)c(OC)cc1N1CCC(N2CCCC2)CC1 [Compound 118],> 1000,,4.8,4.8,,2.3,,,,< 10,< 10,< 10,< 10,< 10,< 10,10 to 100,100 to 1000,,,,"GI50 [5, 19]: 9.4 nM; GI50 [6, 21]: 2.38 nM; GI50 [7, 24]: 14.6 nM; GI50 [8, 39]: 29.2 nM; GI50 ([9]; A431, EGFR wt, read-out: GI50): 156 nM"
"C=CC(=O)Nc1cc(Nc2cc(-c3cn(C(C)C)c4ccc(F)cc34)ncn2)c(OC)cc1N(C)CCN(C)C [Compound 191, N-(5-(6-(5-fluoro-1-isopropyl-1H-indol-3-yl)-pyrimidin-4-ylamino)-4-methoxyl-2-((2-dimethylamino-ethyl)-methyl-amino)-phenyl)-acrylamide]",,,,,,,,,,10 to 100,< 10,< 10,< 10,< 10,< 10,< 10,100 to 1000,> 1000,> 1000,> 1000,
"C=CC(=O)Nc1cc(Nc2nccc(-n3ccc4c(OCCOC)cccc43)n2)c(OC)cc1N(C)CCN(C)C [Compound 205, N-(5-(4-(4-(2-methoxyl-ethoxyl)-1H-indol-1-yl)-pyrimidin-2-ylamino)-2-(2-(dimethylamino-ethyl)-methyl-amino)-4-methoxyl-phenyl)-acrylamide]",,> 1000,,,5.61,,4.9,7.81,> 1000,,,,,,,,,,,,"GI50 [3, 40]: < 10 nM; GI50 [5, 41]: < 10 nM; GI50 [6, 42]: < 10 nM; GI50 [7, 23]: 7.88 nM; GI50 [12, 43]: > 1000 nM"
"C=CC(=O)Nc1cc(Nc2cc(Nc3ccc(OCC4CCOCC4)c(Cl)c3)ncn2)c(OC)cc1N(C)CCN(C)C [Compound 216, N-(5-(6-(3-chloro-4-(tetrahydropyran-4-yl-methoxyl)-phenylamino)-pyrimidin-4-ylamino)-2-((2-dimethylaminoethyl)-methyl-amino)-4-methoxyphenyl)-acrylamide]",,> 1000,,,19.5,,8.96,9.87,> 1000,,,,,,,,,,,,"GI50 [3, 40]: < 10 nM; GI50 [5, 41]: < 10 nM; GI50 [6, 42]: < 10 nM; GI50 [12, 43]: > 1000 nM"
"C=CC(=O)Nc1cc(Nc2cc(Nc3cc(F)c(OC)c(Cl)c3)ncn2)c(OC)cc1N(C)CCN(C)C [Compound 236, N-(5-(6-(3-chloro-5-fluoro-4-methoxyphenylamino)-pyrimidin-4-yl-amino)-2-((2-dimethylamino-ethyl)-methyl-amino)-4-methoxyl-phenyl)-acrylamide]",,> 1000,,,0.82,,3.88,1.49,> 1000,,,,,,,,,,,,"GI50 [3, 40]: < 10 nM; GI50 [5, 41]: < 10 nM; GI50 [6, 42]: < 10 nM; GI50 [7, 23]: 1.46 nM; GI50 [12, 43]: > 1000 nM"
